Test results taken from patent US20250361230A1, “LATS Inhibitors and Uses Thereof” (The USA, as Represented by the Secretary, Dept. of Heath …, priority 2022, published 2025).
pIC50: −log10 of the molar value. Where two headings read alike, the source gives them in different places.

Legend:
Format in all cases: biochemical
LATS1 = molecular target: T1, LATS1 (Homo sapiens, UniProt O95835); assay: RBC HotSpot kinase assay (33P-ATP, P81 filter-binding), LATS1; conditions: read-out: LATS1 IC50
T1 sequence (O95835 1-1130): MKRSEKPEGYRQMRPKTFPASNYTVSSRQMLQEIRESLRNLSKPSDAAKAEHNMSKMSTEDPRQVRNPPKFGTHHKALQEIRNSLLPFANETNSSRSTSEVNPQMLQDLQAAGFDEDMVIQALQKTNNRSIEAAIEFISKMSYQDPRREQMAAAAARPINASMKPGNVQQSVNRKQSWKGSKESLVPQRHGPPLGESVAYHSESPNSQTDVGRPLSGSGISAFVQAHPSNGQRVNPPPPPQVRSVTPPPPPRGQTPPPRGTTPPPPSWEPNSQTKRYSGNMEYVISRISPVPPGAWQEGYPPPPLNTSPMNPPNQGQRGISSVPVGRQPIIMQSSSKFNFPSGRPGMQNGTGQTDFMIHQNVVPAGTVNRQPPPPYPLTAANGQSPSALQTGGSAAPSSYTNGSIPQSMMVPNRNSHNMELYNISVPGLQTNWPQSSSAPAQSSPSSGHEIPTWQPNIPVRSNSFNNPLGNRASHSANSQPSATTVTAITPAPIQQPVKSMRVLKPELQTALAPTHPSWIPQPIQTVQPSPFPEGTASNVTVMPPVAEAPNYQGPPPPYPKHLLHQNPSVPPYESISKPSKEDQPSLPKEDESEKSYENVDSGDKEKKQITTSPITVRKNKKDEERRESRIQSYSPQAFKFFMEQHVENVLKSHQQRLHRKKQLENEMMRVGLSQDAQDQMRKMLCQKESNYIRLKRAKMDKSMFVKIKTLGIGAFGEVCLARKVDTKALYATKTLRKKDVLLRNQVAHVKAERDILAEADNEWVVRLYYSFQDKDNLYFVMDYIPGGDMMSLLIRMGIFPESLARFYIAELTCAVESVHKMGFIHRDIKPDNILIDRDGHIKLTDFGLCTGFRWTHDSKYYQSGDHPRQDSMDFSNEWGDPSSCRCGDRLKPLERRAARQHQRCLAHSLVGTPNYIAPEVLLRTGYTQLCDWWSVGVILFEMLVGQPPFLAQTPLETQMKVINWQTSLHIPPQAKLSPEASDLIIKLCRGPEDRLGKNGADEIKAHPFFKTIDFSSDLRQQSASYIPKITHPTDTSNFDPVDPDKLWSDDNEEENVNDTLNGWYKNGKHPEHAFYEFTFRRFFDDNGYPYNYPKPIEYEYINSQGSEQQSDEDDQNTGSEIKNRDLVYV
Outline: (§1)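 Substrate in fresh buffer receives cofactors, then kinase, then compound in DMSO for a 20 min room-temperature preincubation. Reactions start with 33P-ATP and run 2 h; phosphorylation is read by P81 filter binding, and IC50 comes from a 10-point curve.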

LATS2 = molecular target: T2, LATS2 (Homo sapiens, UniProt Q9NRM7); assay: RBC HotSpot kinase assay (33P-ATP, P81 filter-binding), LATS2; conditions: read-out: LATS2 IC50
T2 sequence (Q9NRM7 1-1088): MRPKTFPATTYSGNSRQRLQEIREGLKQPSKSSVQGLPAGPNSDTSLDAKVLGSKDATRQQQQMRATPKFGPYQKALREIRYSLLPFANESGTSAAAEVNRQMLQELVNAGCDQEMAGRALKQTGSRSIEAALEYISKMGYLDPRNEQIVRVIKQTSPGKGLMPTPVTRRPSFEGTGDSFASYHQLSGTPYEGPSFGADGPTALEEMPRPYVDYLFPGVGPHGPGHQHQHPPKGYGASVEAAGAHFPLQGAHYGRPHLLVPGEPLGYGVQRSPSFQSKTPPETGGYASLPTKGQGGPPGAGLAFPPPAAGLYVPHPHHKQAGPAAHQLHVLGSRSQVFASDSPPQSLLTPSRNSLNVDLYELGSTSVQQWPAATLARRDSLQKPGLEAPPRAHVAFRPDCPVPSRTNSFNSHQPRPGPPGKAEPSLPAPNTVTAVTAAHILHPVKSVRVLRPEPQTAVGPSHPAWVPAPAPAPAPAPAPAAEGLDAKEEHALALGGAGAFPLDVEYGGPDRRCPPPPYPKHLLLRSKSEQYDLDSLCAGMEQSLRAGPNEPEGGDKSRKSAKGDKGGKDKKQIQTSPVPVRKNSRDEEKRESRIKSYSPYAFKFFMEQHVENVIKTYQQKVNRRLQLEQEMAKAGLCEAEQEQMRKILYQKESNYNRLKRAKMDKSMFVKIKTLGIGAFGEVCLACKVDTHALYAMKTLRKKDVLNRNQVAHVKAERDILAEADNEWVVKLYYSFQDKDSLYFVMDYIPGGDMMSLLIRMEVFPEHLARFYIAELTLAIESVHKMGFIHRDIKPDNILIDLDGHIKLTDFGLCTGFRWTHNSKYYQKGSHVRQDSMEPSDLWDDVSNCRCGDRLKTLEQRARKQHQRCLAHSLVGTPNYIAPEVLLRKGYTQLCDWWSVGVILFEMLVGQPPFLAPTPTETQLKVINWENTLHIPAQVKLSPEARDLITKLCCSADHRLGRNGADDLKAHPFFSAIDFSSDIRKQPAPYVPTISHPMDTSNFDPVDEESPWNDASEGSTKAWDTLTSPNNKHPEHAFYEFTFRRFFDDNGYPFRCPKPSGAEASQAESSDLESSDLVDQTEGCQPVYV
Outline: as §1

AKT = AKT (Homo sapiens, UniProt P31749); assay: RBC HotSpot kinase assay (33P-ATP, P81 filter-binding), AKT; conditions: read-out: AKT IC50
Chain of AKT (P31749 whole entry): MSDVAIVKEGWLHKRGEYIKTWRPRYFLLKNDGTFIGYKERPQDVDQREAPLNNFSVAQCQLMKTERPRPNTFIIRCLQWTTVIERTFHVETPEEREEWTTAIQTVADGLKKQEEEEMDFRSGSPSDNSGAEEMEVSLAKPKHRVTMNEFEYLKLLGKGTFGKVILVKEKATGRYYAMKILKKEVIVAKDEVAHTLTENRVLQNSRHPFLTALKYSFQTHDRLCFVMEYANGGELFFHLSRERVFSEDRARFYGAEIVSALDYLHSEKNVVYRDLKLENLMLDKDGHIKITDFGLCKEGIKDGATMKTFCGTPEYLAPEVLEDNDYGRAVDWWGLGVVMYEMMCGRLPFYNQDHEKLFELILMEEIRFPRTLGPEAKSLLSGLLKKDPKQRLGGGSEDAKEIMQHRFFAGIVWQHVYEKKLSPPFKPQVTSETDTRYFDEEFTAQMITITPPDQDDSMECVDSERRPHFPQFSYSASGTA
Outline: as §1

[1] = Table 28, biochemical kinase assay
[2] = Table 32, biochemical kinase assay

| pIC50 (LATS1; [1]) | pIC50 (LATS2; [1]) | pIC50 (AKT; [1]) | pIC50 (LATS1; [2]) | pIC50 (LATS2; [2]) | pIC50 (AKT; [2]) | Compound |
| --- | --- | --- | --- | --- | --- | --- |
| 8.00 | 8.08 | 5.96 | – | – | – | Cc1cc(-c2ccnc3[nH]ccc23)cc(F)c1[C@@]1(O)[C@H](C)CN(C2CCS(=O)(=O)CC2)C[C@@H]1C [Compound 308, 4-((3S,4s,5R)-4-(2-fluoro-6-methyl-4-(1H-pyrrolo[2,3-b]pyridin-4-yl)phenyl)-4-hydroxy-3,5-dimethylpiperidin-1-yl)tetrahydro-2H-thiopyran 1,1-dioxide] |
| 8.16 | 8.44 | 5.98 | – | – | – | COC(=O)c1c[nH]c2nccc(-c3ccc([C@@]4(O)[C@H](C)CN(C(=O)CN)C[C@@H]4C)c(C)c3)c12 [Compound 311, methyl 4-(4-((3S,4s,5R)-1-glycyl-4-hydroxy-3,5-dimethylpiperidin-4-yl)-3-methylphenyl)-1H-pyrrolo[2,3-b]pyridine-3-carboxylate] |
| 8.80 | 8.32 | 6.60 | – | – | – | Cc1cc(-c2ccnc3[nH]cc(C)c23)cc(F)c1[C@@]1(O)[C@H](C)CN(C(=O)CN)C[C@@H]1C [Compound 314, 2-amino-1-((3S,4s,5R)-4-(2-fluoro-6-methyl-4-(3-methyl-1H-pyrrolo[2,3-b]pyridin-4-yl)phenyl)-4-hydroxy-3,5-dimethylpiperidin-1-yl)ethan-1-one] |
| 7.94 | 8.24 | 5.87 | – | – | – | CN[C@@H](C)C(=O)N1C[C@@H](C)[C@](O)(c2c(C)cc(-c3ccnc4[nH]cc(F)c34)cc2F)[C@@H](C)C1 [Compound 315, (S)-1-((3S,4R,5R)-4-(2-fluoro-4-(3-fluoro-1H-pyrrolo[2,3-b]pyridin-4-yl)-6-methylphenyl)-4-hydroxy-3,5-dimethylpiperidin-1-yl)-2-(methylamino) propan-1-one] |
| 7.92 | 8.17 | 5.86 | – | – | – | CN[C@H](C)C(=O)N1C[C@@H](C)[C@](O)(c2c(C)cc(-c3ccnc4[nH]cc(F)c34)cc2F)[C@@H](C)C1 [Compound 316, (R)-1-((3S,4S,5R)-4-(2-fluoro-4-(3-fluoro-1H-pyrrolo[2,3-b]pyridin-4-yl)-6-methylphenyl)-4-hydroxy-3,5-dimethylpiperidin-1-yl)-2-(methylamino) propan-1-one] |
| 8.12 | 8.42 | 6.73 | – | – | – | Cc1cc(-c2ccnc3[nH]cc(Cl)c23)cc(F)c1[C@@]1(O)[C@H](C)CN(C(=O)CN)C[C@@H]1C [Compound 317, 2-amino-1-((3S,4s,5R)-4-(4-(3-chloro-1H-pyrrolo[2,3-b]pyridin-4-yl)-2-fluoro-6-methylphenyl)-4-hydroxy-3,5-dimethylpiperidin-1-yl)ethan-1-one] |
| 8.39 | 8.89 | 5.85 | – | – | – | Cc1cc(-c2ccnc3[nH]cc(-c4cccnc4)c23)cc(F)c1[C@@]1(O)[C@H](C)CN(C(=O)CN)C[C@@H]1C [Compound 318, 2-amino-1-((3S,4s,5R)-4-(2-fluoro-6-methyl-4-(3-(pyridin-3-yl)-1H-pyrrolo[2,3-b]pyridin-4-yl)phenyl)-4-hydroxy-3,5-dimethylpiperidin-1-yl)ethan-1-one] |
| – | – | – | 7.50 | 7.92 | 8.49 | NCC(O)(c1ccc(Cl)cc1)c1ccc(-c2ccnc3[nH]cc(Cl)c23)cc1 (stereo not drawn) [Compound 1003, 2-amino-1-(4-(3-chloro-1H-pyrrolo[2,3-b]pyridin-4-yl)phenyl)-1-(4-chlorophenyl) ethan-1-ol] |
| – | – | – | 9.30 | > 9.30 | > 9.30 | NCC(O)(c1ccc(Cl)cc1)c1ccc(-c2ccnc3[nH]cc(Cl)c23)nc1 (stereo not drawn) [Compound 1010, 2-amino-1-(6-(3-chloro-1H-pyrrolo[2,3-b]pyridin-4-yl)pyridin-3-yl)-1-(4-chlorophenyl)ethan-1-ol] |
| – | – | – | 8.07 | 8.08 | 6.90 | NCC(O)(c1ccc(Cl)cc1)c1ccc(-c2ccnc3[nH]cc(-c4ccccc4)c23)nc1 (stereo not drawn) [Compound 1012, 2-amino-1-(4-chlorophenyl)-1-(6-(3-phenyl-1H-pyrrolo[2,3-b]pyridin-4-yl)pyridin-3-yl) ethan-1-ol] |
| – | – | – | 8.43 | 8.29 | 7.76 | CC(=O)NCC(O)(c1ccc(Cl)cc1)c1ccc(-c2ccnc3[nH]ccc23)cc1 (stereo not drawn) [Compound 1014, N-(2-(4-(1H-pyrrolo[2,3-b]pyridin-4-yl)phenyl)-2-(4-chlorophenyl)-2-hydroxyethyl)acetamide] |
| – | – | – | 8.40 | 8.43 | 8.23 | O=C(CO)NCC(O)(c1ccc(Cl)cc1)c1ccc(-c2ccnc3[nH]ccc23)cc1 (stereo not drawn) [Compound 1015, N-(2-(4-(1H-pyrrolo[2,3-b]pyridin-4-yl)phenyl)-2-(4-chlorophenyl)-2-hydroxyethyl)-2-hydroxyacetamide] |
| – | – | – | 8.15 | 8.40 | 8.13 | O=C(CO)NCC(O)(c1ccc(Cl)cc1)c1ccc(-c2ccnc3[nH]cc(F)c23)cc1 (stereo not drawn) [Compound 1016, N-(2-(4-chlorophenyl)-2-(4-(3-fluoro-1H-pyrrolo[2,3-b]pyridin-4-yl)phenyl)-2-hydroxyethyl)-2-hydroxyacetamide] |
| – | – | – | 8.27 | 8.55 | 8.55 | O=C(CO)NCC(O)(c1ccc(Cl)cc1)c1ccc(-c2ccnc3[nH]cc(Cl)c23)cc1 (stereo not drawn) [Compound 1017, N-(2-(4-(3-chloro-1H-pyrrolo[2,3-b]pyridin-4-y1)phenyl)-2-(4-chlorophenyl)-2-hydroxyethyl)-2-hydroxyacetamide] |
| – | – | – | 7.73 | 8.00 | 7.13 | CC(C)(O)C(=O)NCC(O)(c1ccc(Cl)cc1)c1ccc(-c2ccnc3[nH]ccc23)cc1 (stereo not drawn) [Compound 1018, N-(2-(4-(1H-pyrrolo[2,3-b]pyridin-4-yl)phenyl)-2-(4-chlorophenyl)-2-hydroxyethyl)-2-hydroxy-2-methylpropanamide] |
| – | – | – | 8.40 | 8.25 | 8.27 | CN(C)CC(=O)NCC(O)(c1ccc(Cl)cc1)c1ccc(-c2ccnc3[nH]ccc23)cc1 (stereo not drawn) [Compound 1019, N-(2-(4-(1H-pyrrolo[2,3-b]pyridin-4-yl)phenyl)-2-(4-chlorophenyl)-2-hydroxyethyl)-2-(dimethylamino) acetamide] |
